Reference: patent US10487056B2, “Small molecule androgen receptor inhibitors and methods of use thereof” (GEORGETOWN UNIVERSITY, priority 2015, dated 2019)

How the values were obtained:
Type in all cases: cell-based
[1] = tested on: AR; assay: 22Rv1-MDVR-ARE-luc luciferase reporter assay; conditions: 22Rv1-MDVR-ARE-luc cells, range of doses, 24 hours
Protocol: […]. Luciferase activity was measured and plotted as a percentage of control. Data represent the mean of three independent experiments with quadruplicate samples; bars, SEM. ***, p value <0.001 determined by ANOVA.
VCaP-MDVR and 22Rv1-MDVR stably expressing ARE-luciferase construct (VCaP-MDVR-ARE-luc and 22Rv1-MDVR-ARE-luc) were generated as described above in the Materials and Methods section. […].

[2] = tested on: c-myc promoter; assay: c-myc promoter-luciferase reporter in 22Rv1 cells; conditions: 1 μM, 24 hours
Protocol: 22Rv1 cells were transfected with c-myc promoter-luciferase reporter construct and Renilla luciferase plasmids (pRL-TK-Luc) and treated with 1 μM of SH-I-125 for 24 hours. Promoter activity was determined after normalization with Renilla luciferase activity. Columns, mean of three independent experiments with quadruplicate samples; bars, SEM.

[3] = tested on: VCaP cells; assay: Caspase-Glo 3/7 activity assay, VCaP cells; conditions: 3 days
Protocol: (§1) Caspase 3/7 activity was measured using Caspase-Glo 3/7 substrates. Data represent mean of three independent experiments with quadruplicate samples; bars, SEM. ***, p value <0.001 determined by ANOVA.

[4] = tested on: 22Rv1 cells; assay: Live and dead cell staining, 22Rv1 cells; conditions: SH-I-125 1 μM, 3 days
Protocol: Live and dead cells were determined using a Cell Viability/Cytotoxicity Assay kit (Biotium Inc.; Hayward, Calif.).
(§2) To determine the effects of SH-I-125 on prostate cancer cell growth, 22Rv1 cells were treated with SH-I-125 and cell viability was measured after a period of 3 days. […]. In comparison, non-tumorigenic primary prostate epithelial cells (PrEC) retained 80% viability in the presence of a similar range of doses of SH-I-125, showing that tumorigenic cells are more susceptible to the growth inhibitory properties of SH-I-125 compared to non-tumorigenic cells (FIG. 8B). […] Staurosporine was used as a positive control for cell death induction in live and dead assays (FIG. 9C).

[5] = molecular target: T1, AR (Homo sapiens, UniProt P10275); assay: Immunofluorescence staining and Western blot of AR and PSA in VCaP cells; conditions: DHT 1 nM, MDV3100 10 μM or SH-I-125 1 μM, 24 hours
T1 construct: Androgen-dependent VCaP cells were made to stably express an androgen-response element luciferase reporter (VCaP-ARE-luc); host or cells: VCaP / VCaP-ARE-luc
T1 sequence (P10275 1-920): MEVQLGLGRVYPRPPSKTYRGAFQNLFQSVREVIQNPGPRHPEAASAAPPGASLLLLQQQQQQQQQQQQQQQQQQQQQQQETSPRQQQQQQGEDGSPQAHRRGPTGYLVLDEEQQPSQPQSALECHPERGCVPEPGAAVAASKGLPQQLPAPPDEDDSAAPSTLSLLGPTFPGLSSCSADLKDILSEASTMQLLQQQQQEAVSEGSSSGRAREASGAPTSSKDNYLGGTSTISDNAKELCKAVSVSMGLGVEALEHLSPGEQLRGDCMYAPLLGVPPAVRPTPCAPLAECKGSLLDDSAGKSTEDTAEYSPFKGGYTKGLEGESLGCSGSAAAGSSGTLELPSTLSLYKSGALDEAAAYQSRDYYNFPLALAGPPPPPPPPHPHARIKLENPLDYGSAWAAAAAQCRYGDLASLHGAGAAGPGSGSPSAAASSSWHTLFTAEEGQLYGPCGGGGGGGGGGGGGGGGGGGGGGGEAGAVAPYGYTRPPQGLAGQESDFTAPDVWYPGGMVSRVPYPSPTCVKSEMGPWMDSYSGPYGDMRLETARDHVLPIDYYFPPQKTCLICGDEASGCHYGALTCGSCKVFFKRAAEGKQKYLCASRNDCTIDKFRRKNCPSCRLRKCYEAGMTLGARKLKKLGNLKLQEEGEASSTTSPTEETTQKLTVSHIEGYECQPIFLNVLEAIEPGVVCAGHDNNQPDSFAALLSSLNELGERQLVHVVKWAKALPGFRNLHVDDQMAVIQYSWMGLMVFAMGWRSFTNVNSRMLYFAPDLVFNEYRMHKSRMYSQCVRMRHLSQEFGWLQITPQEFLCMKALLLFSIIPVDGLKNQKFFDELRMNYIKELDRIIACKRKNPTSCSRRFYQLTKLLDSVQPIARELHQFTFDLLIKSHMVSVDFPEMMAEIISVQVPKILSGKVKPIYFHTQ
Protocol: Androgen receptor (AR) and PSA expression levels were assessed.
AR and PSA expression levels were assessed. B-actin was used as a loading control.

[6] = tested on: AR and AR-V7; assay: Western blot of AR and AR-V7 levels in 22Rv1 cells
Protocol: AR levels were assessed by Western blotting. β-actin was used as a loading control.
(§3) AR and AR-V7 levels were assessed. β-actin was used as a loading control.
as §3
MG132 (5 μM), a known proteasome inhibitor, was added on Day 2. AR expression was assessed by Western blotting. β-actin was used as a loading control.

[7] = tested on: 22Rv1-MDVR cells; assay: Caspase-Glo 3/7 activity assay, 22Rv1-MDVR cells; conditions: SH-I-125 1 μM, 3 days
Protocol: (§4) Caspase 3/7 activity was measured using Caspase-Glo 3/7 substrates. Data represent mean of three independent experiments with quadruplicate samples; bars, SEM.
(§5) The emergence of resistance to clinical anti-androgens is an ongoing problem in the treatment of castration-resistant prostate cancer.

[8] = tested on: VCaP-MDVR cells; assay: Cell viability (MTT), VCaP-MDVR cells; conditions: MDV3100, ARN-509 10 μM, SH-I-125 range, 3 days
Protocol: Cell viability was measured using the MTT assay.

[9] = tested on: 22Rv1 cells; assay: Caspase-Glo 3/7 activity assay, 22Rv1 cells
Protocol: 22Rv1 cells were treated with SH-I-125 (1 μM) for one, two, or three days, and caspase 3/7 activity was measured using Caspase-Glo 3/7 substrates. […] Data represent mean of three independent experiments with quadruplicate samples; bars, SEM. ***, p value <0.001 determined by ANOVA.
as §1
[…]; Madison, Wis.).
. […] Staurosporine was used as a positive control for apoptosis induction (FIG. 10B).

[10] = tested on: VCaP-MDVR cells; assay: Caspase-Glo 3/7 activity assay, VCaP-MDVR cells; conditions: SH-I-125 1 μM, 3 days
Protocol: as §4, §5

[11] = MTT cell viability assay, PrEC cells; conditions: human, non-tumorigenic primary prostate epithelial cells (PrEC), similar range of doses, read-out: cell viability retained
Protocol: Cells were treated in the manner indicated below for the specified period of time. MTT assay was performed as described in Amin et al., Mol. Cancer Ther., 13:341-52 (2014).
as §2

COc1ccc2c(c1)[nH]c1c(C)c(OS(=O)(=O)c3cccc4ccccc34)ccc12 [SH-I-125, 7-methoxy-1-methyl-9H-carbazol-2-yl naphthalene-1-sulfonate]
luciferase activity (AR activity) [1]: retained its inhibitory effect | c-myc promoter-luciferase activity [2]: unaffected | caspase 3/7 activity [3]: induced caspase activity | live and dead cell staining [4]: killed 22Rv1 cells | AR nuclear localization [5]: blocked AR nuclear localization | PSA expression [5]: inhibited PSA expression | cellular AR and AR-V7 levels ([6]; 3 days, SH-I-125 at 1 μM): reduced AR and AR-V7 levels | AR and AR splice variant levels in the presence of proteasome inhibitor MG132 ([6]; SH-I-125 plus MG132): Proteasome inhibition rescued the decline | caspase 3/7 activation [7]: inducing caspase activation | cell growth / viability [8]: effective in preventing the growth | caspase 3/7 activity ([9]; 3 days): induced caspase activity | caspase-3 and -7 activities, time-course ([9]; SH-I-125 1 μM, after three days treatment): significantly induced | caspase 3/7 activation [10]: inducing caspase activation | viability at 3 days [11]: 80%
